For series [1], the system named is Aspergillus fumigatus NCPF7100. Kind of series: Broth microdilution assay (modified EUCAST). It counts as cell-based. On the technique in general: In broth dilution the organism is exposed to a series of concentrations in liquid medium.
In series [2] the test system is Aspergillus fumigatus NCPF7099. Briefly: Broth microdilution assay (modified EUCAST). It counts as cell-based. In a few lines:
(§1)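 Spores from 3-day Sabouraud cultures (working suspension 2 × 10^5 spores/mL) were added to an equal volume of RPMI-1640 (2 mM L-glutamine, 0.5% BSA, 2% glucose, 0.165 M MOPS, pH 7) containing compound, in quadruplicate. After 48 hr at 35 °C, OD530 gave percent inhibition. MIC50, MIC75 and MIC90 came from concentration-response curves.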

Series [3] deals with Aspergillus fumigatus NCPF2010. Kind of series: Broth microdilution assay (modified EUCAST). Type of series: cell-based. In a few lines:
as §1

For series [4], the system named is Aspergillus fumigatus L98H (TR34/L98H). Briefly: Broth microdilution assay (modified EUCAST). It counts as cell-based. The essentials: as §1
In series [5] the test system is Aspergillus fumigatus (NCPF2010). Kind of series: Resazurin-microtitre assay of planktonic fungus growth. It counts as cell-based. Here is the method: This assay was conducted using a modified, published method (Monteiro et al., 2012). Spores of aspergillus fumigatus (NCPF2010, Public Health England, Wiltshire) were cultured in Sabouraud dextrose agar for 3 days. A stock spore suspension was prepared from a Sabouraud dextrose agar culture by washing with PBS-tween (10 mL; PBS containing 0.05% Tween-20, 100 U/mL Penicillin and 100 U/mL Streptomycin). The spore count was assessed using a Neubauer haemocytometer and, using PBS adjusted to 10^6 spores/mL. A working suspension of spores (10^4 spores/mL) was prepared in filter sterilised MOPS RPMI-1640 (50 mL; RPMI-1640 containing 2 mM L-glutamine, 2% glucose and 0.165 M MOPS, buffered to pH 7 with NaOH). Resazurin sodium salt (100 µL of 1% solution; Sigma-Aldrich, Dorset, UK) was added to the spore suspension and mixed well. The spore suspension-resazurin mixture (100 µL/well) was added to 384-well plates (Catalogue number 353962, BD Falcon, Oxford, UK).
Simultaneously, test compounds (0.5 µL DMSO solution) were added to 100 µL of the spore-resazurin mixture in quadruplicate to provide a final DMSO solution of 0.5% using an Integra VIAFLO 96 (Intergra, Zizers, Switzerland). For non-spore control wells, MOPS-RPMI-resazurin solution (100 µL) was added instead of the spore-resazurin mixture. The plate was covered with a Breathe Easier membrane (Catalogue No Z763624, Sigma-Aldrich, Dorset, UK), and incubated (35° C., 5% CO2) until fluorescence in the inoculated wells was double that of the control wells (around 24 hr). The fluorescence of each well (545 nm (excitation) / 590 nm (emission), gain 800, focal height 5.5 mm) was determined using a multi-scanner (Clariostar: BMG, Buckinghamshire, UK). The percentage inhibition for each well was calculated and the MIC50, MIC75 and MIC90 values were calculated from the concentration-response curve generated for each test compound.
For orientation: Alamar Blue is a resazurin reagent that responds to reducing activity.

Series [6] concerns aspergillus fumigatus infection of BEAS2B cells. Kind of series: Aspergillus fumigatus infection of bronchial epithelial cells (GM in supernatant). Type of series: cell-based. The following applies: Aspergillus fumigatus, read-out: MIC50 Infection of BEAS2B cells. The essentials:
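BEAS2B cells in 10% FBS RPMI-1640 pre-treated with compound (0.5% DMSO final) for 1 hr at 35 °C, then infected with A. fumigatus conidia (0.5×10^5/ml suspension) for 24 hr at 35 °C. Galactomannan in 1:20-diluted supernatant measured by Platelia GM-EIA; IC50 from percent-inhibition concentration-response curves.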

Series [7] is described as follows: Cell viability: resazurin assay. The following applies: human, BEAS2B cells; n = 3-5. It counts as cell-based, human. In a few lines: (§2)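 BEAS2B cells in RPMI-LHC8, exposed to compound for 1 day at 37 °C (0.5% DMSO final), then resazurin added for a further 4 h. Fluorescence (ex 545/em 590 nm) gives % viability loss vs 0.5% DMSO vehicle; CC50 from concentration-response curve.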

For series [8], the system named is aspergillus fumigatus (ATCC 13073 [strain: NIH 5233]). Kind of series: In vivo anti-fungal activity, prophylactic and therapeutic treatment of infected immunocompromised neutropenic mice. The settings on record: prophylactic treatment (days 0, 1, 2 and 3); 0.4 mg/mL. Further details: species or system A/J mice.
The subject of series [9] is Aspergillus flavus ATCC204304. Kind of series: Fungus panel screening, CLSI broth microdilution. It counts as cell-based. Here is the method: (§3) Fungus panel screening was conducted by Eurofins Panlabs Inc. The MIC and MIC50 values of the test articles were determined following the guidelines of the Clinical and Laboratory Standards Institute, broth microdilution methods for yeast (CLSI M27-A2), (CLSI, 2002) and for filamentous fungi (CLSI M38-A), (CLSI, 2008).

In series [10] the test system is Chaectomium globosum ATCC44699. Briefly: Fungus panel screening, CLSI broth microdilution. It counts as cell-based. Here is the method:
as §3

Series [11] concerns Cryptococcus neoformans ATCC24067. Kind of series: Fungus panel screening, CLSI broth microdilution. It counts as cell-based. Here is the method:
as §3

Another series relates to BEAS2B cells. Kind of series: Cell viability: resazurin assay. Type of series: cell-based, human. The following applies: n = 3-5. In a few lines:
as §2

[12] abbreviates: broth microdilution assay, n = 3.
Setting [13] is: Aspergillus fumigatus NCPF2010, resazurin-microtitre assay.
Setting [14] is: 50% inhibition by visual inspection (CLSI).
Where [15] appears, read: 100% inhibition by visual inspection (CLSI), read-out: MIC100.

≈ marks a conversion by molar mass, not a printed value. Like-named read-outs stand apart in the source and are kept apart here.

Regarding `C[C@@H]1[C@H](O)[C@@H](C)/C=C/C=C/C=C/C=C/C=C/C=C/C=C/[C@H](O[C@@H]2O[C@H](C)[C@@H](O)[C@H](N)[C@@H]2O)C[C@@H]2O[C@](O)(C[C@@H](O)C[C@@H](O)[C@H](O)CC[C@@H](O)C[C@@H](O)CC(=O)O[C@H]1C)C[C@H](O)[C@H]2C(=O)O` [Amphotericin B, reference compound], the “MIC75 against Aspergillus fumigatus isolate NCPF7100” value in [1] (setting [12]) is over 1.08 µM. Further, the MIC in series [2] (n = 3, read-out: MIC75 against Aspergillus fumigatus isolate NCPF7099) amounted to 0.365 µM (≈ 0.337 µg/mL). In addition, the MIC in series [3] (broth microdilution assay, n = 3, read-out: MIC75 against Aspergillus fumigatus isolate NCPF2010) came out at 0.382 µM (≈ 0.353 µg/mL). The “MIC75 against Aspergillus fumigatus isolate L98H” value in series [4] (setting [12]) was 0.209 µM (≈ 0.193 µg/mL). Further, in series [5] (setting [13]), the “MIC50 Planktonic fungal growth” value was determined as 0.0285 µM (≈ 0.0263 µg/mL) and the “MIC75 Planktonic fungal growth” value stood at 0.0644 µM (≈ 0.0595 µg/mL).

Regarding `Cc1cc(N2CCN(c3ccc(C(=O)Nc4ccc(F)cc4F)cc3)CC2)ccc1OC[C@@H]1CO[C@@](Cn2cncn2)(c2ccc(F)cc2F)C1` [Example 2, 4-(4-(4-(((3R,5R)-5-((1H-1,2,4-Triazol-1-yl)Methyl)-5-(2,4-Difluorophenyl) Tetrahydrofuran-3-yl)Methoxy)-3-Methylphenyl)Piperazin-1-yl)-N-(2,4-Difluorophenyl) Benzamide], the MIC in [1] (Aspergillus fumigatus, NCPF7100, read-out: MIC75 against Aspergillus fumigatus isolate NCPF7100) amounted to 0.0213 µM (≈ 0.0149 µg/mL); in [2] (Aspergillus fumigatus, NCPF7099, n = 3, read-out: MIC75 against Aspergillus fumigatus isolate NCPF7099), 0.0283 µM (≈ 0.0198 µg/mL); in series [3] (Aspergillus fumigatus, NCPF2010, read-out: MIC75 against Aspergillus fumigatus isolate NCPF2010), 0.007 µM (≈ 0.00491 µg/mL); in series [4] (Aspergillus fumigatus, read-out: MIC75 against Aspergillus fumigatus isolate L98H) it was 0.0816 µM (≈ 0.0572 µg/mL); in [5] (Aspergillus fumigatus, NCPF2010, read-out: MIC75 Planktonic fungal growth) it was 0.00306 µM (≈ 0.00214 µg/mL). The MIC50 (as a rule, the lowest concentration that inhibits either 50% of growth or 50% of the strains tested, depending on the study) in series [6] turned out to be 0.00142 µM (≈ 0.000995 µg/mL); in series [5] (Aspergillus fumigatus, NCPF2010, read-out: MIC50 Planktonic fungal growth), 0.00074 µM (≈ 0.000519 µg/mL). Further, the CC50 – broadly, the concentration at which the toxic effect on the cells reaches its halfway point – at 1 day in [7] is over 14.3 µM. Further, the “% Inhibition versus Infected Controls, GM in BALF” value in [8] is 43%. Besides, the “% Inhibition versus Infected Controls, GM in serum” value in [8] came to 27%. Further, in series [8], the “% Inhibition versus Infected Controls, Lung Fungal Load” value came to 25%.

Turning to `C[C@@H](c1ncncc1F)[C@](O)(Cn1cncn1)c1ccc(F)cc1F` [Voriconazole], the MIC in series [3] (Aspergillus fumigatus, NCPF2010, broth microdilution assay, n = 3, read-out: MIC75 against Aspergillus fumigatus isolate NCPF2010) was found to be 0.496 µM (≈ 0.173 µg/mL); in series [9] (setting [15]) it was 2 µg/mL (≈ 5.73 µM); in series [10] (setting [15]) it was 1 µg/mL (≈ 2.86 µM); in series [11] (setting [15]) it was 1 µg/mL (≈ 2.86 µM). Moreover, the values for the MIC50 in series [9] (setting [14]), in [10] (setting [14]) and in series [11] (setting [14]) were 1 µg/mL (≈ 2.86 µM), 0.5 µg/mL (≈ 1.43 µM) and 0.016 µg/mL (≈ 0.0458 µM), respectively. The molecule also showed a CC50 in the series with BEAS2B cells of over 28.6 µM.

These data come from patent US20230295133A1, “PROCESS FOR PREPARING A COMPOUND USEFUL TO TREAT MYCOSES” (PULMOCIDE LIMITED, priority 2014, published 2023).
